“And” between values parts separate entries of the source, which are not always exact repeats. Identical values can stand only once. “Also recorded” adds a separate entry of the source.
Assays:
[1] = system: phosphorylation of ROS1, AKT, ERK in NIH-3T3 (CD74-ROS1) cells; assay: Western blot of ROS1 and downstream signaling phosphorylation; type: cell-based; details: 2 h incubation
Method: (§1) In general, the cells were exposed to the drug and were harvested for western blot analysis. SDS-PAGE was used to separate the proteins of interest, which were then transferred to a nitrocellulose (NC) filtration membrane and soaked in a blocking solution [5% non-fat dry milk in tris-buffered saline with Tween 20 (TBST)] for 1 h at room temperature. Thereafter, the membrane was probed overnight with primary antibodies at 4℃ and washed three times with TBST. The corresponding secondary antibody diluent was added, incubated at room temperature for 1 h, and washed 3 times with TBST. After adding the enhanced chemiluminescence developer to the NC filtration membrane, it is developed in the imaging system (ChemiDoc™ XRS^+, BIO-RAD). See Supplementary Table 2 for details of the antibodies used.
(§2) It is reported that ROS1-mediated cell signaling pathways include RAS-RAF-MEK-ERK, PI3K-AKT-mTOR and JAK-STAT3 pathways. According to reports and the differences in the expression of signaling pathway proteins in different cells, the key signaling proteins in different signaling pathways were selected for research.

[2] = system: phosphorylation of ROS1, ERK, SHP-1 in Ba/F3 (SLC34A2-ROS1) cells; assay: as above; type: cell-based; details: 2 h incubation
Method: as §1, §2

[3] = Plasma protein binding rate (dialysis); type: in vitro ADME
Method: At three test concentrations (0.2, 2 and 10 µM), the plasma protein binding rate of iruplinalkib is as follows (Fig. 3a). […] With the increase of concentration, the protein binding rates of iruplinalkib in rat plasma decreased gradually, showing a certain concentration dependence, and there was no concentration dependence of protein binding rate observed in other species plasma.

[4] = system: CYP3A4; assay: Hepatic enzyme induction in human hepatocytes (gene expression); type: in vitro ADME
Method: Human hepatocytes derived from three donors were used for evaluating for hepatic enzyme inducing activity. […] The gene expression related to cytochrome P450 isoenzyme CYP3A4 in hepatocytes of one of the three donors increased with iruplinalkib 1 µM.

[5] = target: T1, P-gp (Homo sapiens, UniProt P08183); assay: ABC efflux transporter inhibitor test on Caco-2 cells (digoxin efflux); type: in vitro ADME
T1 construct: endogenous in cells; host or cells: Caco-2
T1 sequence (P08183 whole entry): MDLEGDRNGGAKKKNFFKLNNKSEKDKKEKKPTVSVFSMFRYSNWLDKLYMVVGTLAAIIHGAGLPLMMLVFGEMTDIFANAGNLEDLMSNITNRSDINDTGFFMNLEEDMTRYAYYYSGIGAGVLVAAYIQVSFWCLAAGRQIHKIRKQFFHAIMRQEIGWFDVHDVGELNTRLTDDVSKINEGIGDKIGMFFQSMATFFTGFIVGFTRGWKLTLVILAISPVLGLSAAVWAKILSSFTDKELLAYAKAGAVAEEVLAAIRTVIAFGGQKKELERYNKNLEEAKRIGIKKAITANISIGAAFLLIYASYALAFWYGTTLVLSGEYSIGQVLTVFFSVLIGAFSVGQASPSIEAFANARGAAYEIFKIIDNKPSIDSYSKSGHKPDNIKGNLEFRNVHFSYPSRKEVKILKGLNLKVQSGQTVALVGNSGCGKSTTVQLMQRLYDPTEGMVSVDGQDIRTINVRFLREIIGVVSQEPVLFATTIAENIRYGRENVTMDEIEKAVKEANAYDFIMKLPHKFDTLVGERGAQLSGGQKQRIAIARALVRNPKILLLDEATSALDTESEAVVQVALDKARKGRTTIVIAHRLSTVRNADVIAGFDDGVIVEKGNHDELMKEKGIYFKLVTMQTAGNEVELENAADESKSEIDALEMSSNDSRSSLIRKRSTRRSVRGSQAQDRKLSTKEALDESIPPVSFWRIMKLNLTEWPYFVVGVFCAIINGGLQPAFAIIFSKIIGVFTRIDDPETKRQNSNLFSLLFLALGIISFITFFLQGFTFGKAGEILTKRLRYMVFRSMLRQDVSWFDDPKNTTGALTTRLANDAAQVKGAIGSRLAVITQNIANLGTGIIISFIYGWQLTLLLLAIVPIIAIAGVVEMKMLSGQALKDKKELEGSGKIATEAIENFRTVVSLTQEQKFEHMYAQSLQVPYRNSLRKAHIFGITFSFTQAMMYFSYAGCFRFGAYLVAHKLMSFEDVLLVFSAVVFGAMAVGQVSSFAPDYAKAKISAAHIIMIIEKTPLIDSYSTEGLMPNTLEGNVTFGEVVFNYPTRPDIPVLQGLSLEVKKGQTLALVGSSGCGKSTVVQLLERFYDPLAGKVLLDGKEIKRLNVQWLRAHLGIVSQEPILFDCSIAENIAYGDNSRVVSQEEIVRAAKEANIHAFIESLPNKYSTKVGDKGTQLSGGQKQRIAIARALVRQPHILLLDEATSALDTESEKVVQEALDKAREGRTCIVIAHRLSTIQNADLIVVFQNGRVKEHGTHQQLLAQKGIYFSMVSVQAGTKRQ

[6] = target: T2, BSEP (Homo sapiens, UniProt O95342); assay: BSEP inhibitor investigation; type: in vitro ADME
T2 construct: host or cells: membrane vesicles ('Membrane capsule'), BSEP versus NC control, with ATP or AMP
T2 sequence (O95342 whole entry): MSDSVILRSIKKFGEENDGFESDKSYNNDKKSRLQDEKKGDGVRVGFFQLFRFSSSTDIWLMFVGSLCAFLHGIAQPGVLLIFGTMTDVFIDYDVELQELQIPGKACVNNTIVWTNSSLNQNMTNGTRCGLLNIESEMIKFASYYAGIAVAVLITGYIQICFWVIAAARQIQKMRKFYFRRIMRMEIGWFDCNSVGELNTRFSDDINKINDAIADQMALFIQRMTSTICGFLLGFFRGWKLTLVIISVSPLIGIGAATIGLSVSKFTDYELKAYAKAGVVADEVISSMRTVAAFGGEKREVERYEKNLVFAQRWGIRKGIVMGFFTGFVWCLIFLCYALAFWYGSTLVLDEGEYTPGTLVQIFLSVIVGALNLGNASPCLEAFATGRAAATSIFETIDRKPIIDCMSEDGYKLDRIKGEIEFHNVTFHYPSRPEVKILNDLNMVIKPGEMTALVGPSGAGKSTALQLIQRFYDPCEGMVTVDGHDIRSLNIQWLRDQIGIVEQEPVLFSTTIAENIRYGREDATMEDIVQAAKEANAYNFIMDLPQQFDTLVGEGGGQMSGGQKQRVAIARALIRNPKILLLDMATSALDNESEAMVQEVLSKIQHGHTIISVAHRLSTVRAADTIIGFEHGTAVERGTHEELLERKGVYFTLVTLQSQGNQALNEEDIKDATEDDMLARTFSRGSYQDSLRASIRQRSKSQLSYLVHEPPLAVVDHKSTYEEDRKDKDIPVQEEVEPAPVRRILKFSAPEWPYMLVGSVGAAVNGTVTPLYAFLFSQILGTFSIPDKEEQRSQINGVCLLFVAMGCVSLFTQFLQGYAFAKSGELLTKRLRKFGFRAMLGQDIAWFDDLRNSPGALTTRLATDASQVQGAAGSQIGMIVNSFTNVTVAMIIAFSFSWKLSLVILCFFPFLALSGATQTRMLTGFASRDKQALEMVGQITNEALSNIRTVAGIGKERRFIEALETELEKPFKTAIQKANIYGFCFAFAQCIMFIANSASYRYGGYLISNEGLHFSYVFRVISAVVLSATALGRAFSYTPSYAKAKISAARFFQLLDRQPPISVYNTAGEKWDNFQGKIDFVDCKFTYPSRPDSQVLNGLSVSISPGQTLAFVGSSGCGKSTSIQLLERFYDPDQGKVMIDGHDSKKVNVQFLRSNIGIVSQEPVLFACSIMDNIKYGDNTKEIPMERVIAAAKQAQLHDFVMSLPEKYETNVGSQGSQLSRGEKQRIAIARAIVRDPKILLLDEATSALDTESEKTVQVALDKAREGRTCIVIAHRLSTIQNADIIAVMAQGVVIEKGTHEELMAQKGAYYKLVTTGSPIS

[7] = target: FGFR1 (Homo sapiens, UniProt P11362); assay: Z'-LYTE kinase selectivity
Sequence of FGFR1 (P11362 22-822): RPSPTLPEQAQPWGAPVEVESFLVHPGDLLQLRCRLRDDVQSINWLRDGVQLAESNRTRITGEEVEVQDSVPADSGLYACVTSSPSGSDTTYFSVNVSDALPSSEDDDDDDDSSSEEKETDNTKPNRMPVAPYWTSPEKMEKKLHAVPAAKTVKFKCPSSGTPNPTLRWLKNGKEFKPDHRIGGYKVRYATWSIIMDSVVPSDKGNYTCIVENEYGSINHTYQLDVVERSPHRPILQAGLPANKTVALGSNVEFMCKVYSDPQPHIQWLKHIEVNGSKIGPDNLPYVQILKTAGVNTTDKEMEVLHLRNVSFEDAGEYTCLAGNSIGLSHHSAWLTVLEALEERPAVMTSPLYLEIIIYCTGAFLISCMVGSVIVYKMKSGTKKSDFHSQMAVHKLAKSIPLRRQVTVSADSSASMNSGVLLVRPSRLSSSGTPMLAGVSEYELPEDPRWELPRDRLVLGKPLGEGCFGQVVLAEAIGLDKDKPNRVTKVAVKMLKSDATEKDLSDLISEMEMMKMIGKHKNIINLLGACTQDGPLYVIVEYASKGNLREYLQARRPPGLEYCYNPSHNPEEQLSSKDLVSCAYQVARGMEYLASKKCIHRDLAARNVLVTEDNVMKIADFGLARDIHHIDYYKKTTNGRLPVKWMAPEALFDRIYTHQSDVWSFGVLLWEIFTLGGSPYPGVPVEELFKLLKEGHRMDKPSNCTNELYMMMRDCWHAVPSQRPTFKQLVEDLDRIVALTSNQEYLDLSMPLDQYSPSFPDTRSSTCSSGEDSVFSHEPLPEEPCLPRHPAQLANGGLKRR

[8] = target: T3, BCRP (Homo sapiens, UniProt Q9UNQ0); assay: ABC efflux transporter inhibitor test on Caco-2 cells (E3S efflux)
T3 sequence (Q9UNQ0 1-655): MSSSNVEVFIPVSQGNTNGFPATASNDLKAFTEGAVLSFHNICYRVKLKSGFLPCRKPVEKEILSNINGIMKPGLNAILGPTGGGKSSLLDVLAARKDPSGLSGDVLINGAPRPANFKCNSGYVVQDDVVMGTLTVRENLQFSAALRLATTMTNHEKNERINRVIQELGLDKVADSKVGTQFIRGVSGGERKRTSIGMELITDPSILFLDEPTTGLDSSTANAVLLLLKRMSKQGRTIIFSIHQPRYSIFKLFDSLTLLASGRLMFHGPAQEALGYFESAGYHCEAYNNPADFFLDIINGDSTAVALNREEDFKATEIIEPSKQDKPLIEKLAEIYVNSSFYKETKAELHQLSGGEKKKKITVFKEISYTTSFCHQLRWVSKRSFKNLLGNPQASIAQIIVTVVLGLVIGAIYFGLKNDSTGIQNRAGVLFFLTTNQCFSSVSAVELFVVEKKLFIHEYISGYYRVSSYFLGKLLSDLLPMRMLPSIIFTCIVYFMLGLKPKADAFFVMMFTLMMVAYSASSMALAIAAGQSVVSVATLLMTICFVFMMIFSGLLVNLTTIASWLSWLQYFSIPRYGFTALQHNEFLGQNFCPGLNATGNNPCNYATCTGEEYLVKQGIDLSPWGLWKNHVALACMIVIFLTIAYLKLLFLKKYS

[9] = system: OAT1; assay: Uptake substrate investigation in HEK293 cells expressing transporter
Text: (§3) The engineered NIH-3T3 (CD74-ROS1 fusion gene) cells was obtained from Nanjing GenScript Biotechnology Co., Ltd. The engineered Ba/F3 (SLC34A2-ROS1 fusion gene) cell line was obtained from Kyinno Biotechnology (Beijing) Co., Ltd. The HCC-78 (SLC34A2-ROS1 fusion gene) cell line was purchased from Shanghai Hongshun Biotechnology Co., Ltd. The engineered NIH-3T3 (CD74-ROS1 fusion gene) cells was obtained from Nanjing GenScript Biotechnology Co., Ltd. The engineered HEK293 cell lines with OATP1B1 (Lot. No ESH6G27), OATP1B3 (Lot. No ESH7G27), OCT2 (Lot. No ESH9G27), OAT1 (Lot. No ESHCG27), OAT3 (Lot. […] No ESHDG27) were purchased from GenoMembrane and validated using the specific substrate for each transporter. All cells were cultured at 37℃ in a 5% CO2 atmosphere. Cell culture reagents were obtained from Life Technologies, Inc. See Supplemental Table 1 for details on the source of the cell lines and the media used.

[10] = system: OAT3; assay: as above
Text: as §3

[11] = human, Caco-2 cells, probe digoxin (5 µM), read-out: Exhaust inhibition rate (%)
[12] = human, Caco-2 cells, probe E3S (10 µM)
[13] = MOCK293, test substrate 10 μM, no inhibitor, OAT1 pre-test
[14] = OATP1B1-293 (so in the source), test substrate 10 μM, no inhibitor, OAT1 pre-test
[15] = transporter cells vs MOCK293, test substrate 10 μM, no inhibitor, OAT1 pre-test
[16] = MOCK293, test substrate 10 μM, no inhibitor, OAT3 pre-test
[17] = OATP1B1-293 (so in the source), test substrate 10 μM, no inhibitor, OAT3 pre-test
[18] = transporter cells vs MOCK293, test substrate 10 μM, no inhibitor, OAT3 pre-test

Structure (SMILES): COc1cc(N2CCC3(CCN(C)CC3)CC2)ccc1Nc1ncc(Cl)c(Nc2ccccc2P(C)(C)=O)n1 [Iruplinalkib]
- phosphorylation levels of ROS1, AKT, ERK [1]: inhibited
- phosphorylation levels of ROS1, ERK, SHP-1 [2]: inhibited
- plasma protein binding rate ([3]; 0.2 µM, SD rats plasma): high protein binding rate
- plasma protein binding rate ([3]; 0.2, 2 and 10 µM, Beagle dogs plasma): medium protein binding rate
- plasma protein binding rate ([3]; 0.2, 2 and 10 µM, CD-1 mice plasma): medium protein binding rate
- plasma protein binding rate ([3]; 0.2, 2 and 10 µM, Macaca fascicularis plasma): medium protein binding rate
- plasma protein binding rate ([3]; 0.2, 2 and 10 µM, SD rats plasma): medium protein binding rate
- plasma protein binding rate ([3]; 0.2, 2 and 10 µM, human plasma): medium protein binding rate; also recorded: moderate
- inducer of CYP3A4 ([4]; 10 µM, human hepatocytes from three donors): not an inducer
- induction multiples of CYP3A4 gene expression ([4]; donor 1, 0.1 µM): 0.621 fold
- induction multiples of CYP3A4 gene expression ([4]; donor 1, 1 µM): 2.99 fold
- induction multiples of CYP3A4 gene expression ([4]; donor 1, 10 µM): 2.38 fold
- induction multiples of CYP3A4 gene expression ([4]; donor 2, 0.1 µM): 0.879 fold
- induction multiples of CYP3A4 gene expression ([4]; donor 2, 1 µM): 1.80 fold
- induction multiples of CYP3A4 gene expression ([4]; donor 2, 10 µM): 2.81 fold
- induction multiples of CYP3A4 gene expression ([4]; donor 3, 0.1 µM): 0.964 fold
- induction multiples of CYP3A4 gene expression ([4]; donor 3, 1 µM): 9.36 fold
- induction multiples of CYP3A4 gene expression ([4]; donor 3, 10 µM): 1.86 fold
- P-gp inhibitor ([5]; Caco-2): strong inhibitor
- inhibition at 0.1 μM [5, 11]: -30.9%
- inhibition at 0.3 μM [5, 11]: 3.97%
- inhibition at 1 μM [5, 11]: -13.2%
- inhibition at 3 μM [5, 11]: -19.1%
- inhibition at 10 µM [5, 11]: 89.8%
- inhibition at 30 μM [5, 11]: 98.7%
- efflux inhibitor of BSEP [6]: not an efflux inhibitor
- inhibition at 0.1 μM ([6]; BSEP membrane capsules (membrane vesicles), ATP vs AMP, probe TCA, BSEP, substrate TCA 10 μM, inhibitor 0.1 μM, read-out: Inhibition rate): -25.4%
- inhibition at 0.3 μM ([6]; BSEP membrane capsules (membrane vesicles), ATP vs AMP, probe TCA, BSEP, substrate TCA 10 μM, inhibitor 0.3 μM, read-out: Inhibition rate): -10.7%
- inhibition at 1 μM ([6]; BSEP membrane capsules (membrane vesicles), ATP vs AMP, probe TCA, BSEP, substrate TCA 10 μM, inhibitor 1 μM, read-out: Inhibition rate): -26.7%
- inhibition at 3 μM ([6]; BSEP membrane capsules (membrane vesicles), ATP vs AMP, probe TCA, BSEP, substrate TCA 10 μM, inhibitor 3 μM, read-out: Inhibition rate): -11.8%
- inhibition at 10 µM ([6]; BSEP membrane capsules (membrane vesicles), ATP vs AMP, probe TCA, BSEP, substrate TCA 10 μM, inhibitor 10 μM, read-out: Inhibition rate): -10.5%
- inhibition at 30 μM ([6]; BSEP membrane capsules (membrane vesicles), ATP vs AMP, probe TCA, BSEP, substrate TCA 10 μM, inhibitor 30 μM, read-out: Inhibition rate): -0.09%
- inhibition at 100 μM ([6]; BSEP membrane capsules (membrane vesicles), ATP vs AMP, probe TCA, BSEP, substrate TCA 10 μM, inhibitor 100 μM, read-out: Inhibition rate): 26.3%
- IC50 [7]: 249 ± 71 nM
- BCRP inhibitor ([8]; Caco-2): BCRP inhibitor
- inhibition at 0.1 μM [8, 12]: -11.1%
- inhibition at 0.3 μM [8, 12]: 37.7%
- inhibition at 1 μM [8, 12]: 8.3%
- inhibition at 3 μM [8, 12]: 50.9%
- inhibition at 10 µM [8, 12]: 97.2%
- inhibition at 30 μM [8, 12]: 26.3%
- uptake substrate of OAT1 ([9]; HEK293): not an uptake substrate
- Uptake transport activity, Mean [9, 13]: 313.6 pmol/mg protein/min
- Uptake transport activity, Repeat 1 / Repeat 2 [9, 13]: 302.7 pmol/mg protein/min and 324.5 pmol/mg protein/min
- Uptake transport activity, Mean [9, 14]: 289.1 pmol/mg protein/min
- Uptake transport activity, Repeat 1 / Repeat 2 [9, 14]: 285.7 pmol/mg protein/min and 292.5 pmol/mg protein/min
- Ratio of uptake transit activity [9, 15]: 0.92
- Uptake transport activity, Net value [9, 15]: -24.51 pmol/mg protein/min
- uptake substrate of OAT3 ([10]; HEK293): not an uptake substrate
- Uptake transport activity, Mean [10, 16]: 344.0 pmol/mg protein/min
- Uptake transport activity, Repeat 1 / Repeat 2 [10, 16]: 309.8 pmol/mg protein/min and 378.3 pmol/mg protein/min
- Uptake transport activity, Mean [10, 17]: 88.57 pmol/mg protein/min
- Uptake transport activity, Repeat 1 / Repeat 2 [10, 17]: 81.45 pmol/mg protein/min and 95.69 pmol/mg protein/min
- Ratio of uptake transit activity [10, 18]: 0.92
- Uptake transport activity, Net value [10, 18]: -255.5 pmol/mg protein/min
